# Assay results from patent US9096499B2, “Compounds for treatment of cell proliferative diseases” (Board of Regents, The University of Texas System, priority 2003, dated 2015).
# How the values were obtained:
# [1] = tested on: U266 MM cells; experiment: MTT cell growth and survival assay, U266 MM cells; assay type: cell-based; conditions: 72 hours
# Procedure: (§1) To determine the effect of AG and WP compounds on MM cell growth/survival, MM cells were incubated with the indicated concentration of AG or WP for 72 hours before cell growth and survival were estimated by MTT assay.
# (§2) To determine the effect of AG and WP compounds on MM cell growth/survival MM cells were incubated with the indicated concentration of AG or WP for 72 hours before cell growth and survival were estimated by MTT assay.
# [2] = tested on: OCI-My5 cells; experiment: Caspase activation and PARP cleavage in OCI-My5 cells; assay type: cell-based; conditions: 12.5 and 25 μM
# Procedure: To determine whether AG1801 effects caspase activation in MM cells, OCI-My5 cells were treated as described above before cell lysates were examined for casapase activation and PARP cleavage. […] At 12.5 and 25 μM, AG490 was ineffective in caspase activation and PARP clevage in these cells.
# [3] = tested on: MM-1 MM cells; experiment: MTT cell growth and survival assay, MM-1 MM cells; assay type: cell-based; conditions: 72 hours
# Procedure: as §1, §2
# [4] = literature; cited from earlier work
# [5] = tested on: OCI MM cells; experiment: MTT cell growth and survival assay, OCI MM cells; assay type: cell-based; conditions: 72 hours
# Procedure: as §1, §2
# [6] = tested on: Stat3; experiment: IL-6 mediated Stat3 activation (p-Stat3 immunoblot) in MM cells; assay type: cell-based; set-up: key to P-Stat 3: (inhibition = ↓); (no effect) = —
# Procedure: To examine the effect of newly synthesized AG and WP compounds on cytokine-mediated Stat activation, multiple myeloma (MM-1) cells were pretreated with AG490 or AG1801 at 2.5, 12, and 25 μM concentrations (for 2 hr) before stimulating cells with IL-6 or IFN-α for 10 min. Stat3 and Stat1 expression and activation were examined by immunoblotting.
# (§3) To determine the effect of compounds on both Stat3 activation and c-myc protein expression MM-1, OCI-My5 and U266 cells were incubated with 25 μM of AG1801, AG490, WP1038, WP1039, WP1051, or WP1052 for 2 hours before cells were stimulated with 2 ng/ml IL-6 for 10 min. Cell lysates were prepared and immunoblotted for p-Stat3, Stat3, c-myc and actin (as a control). Both Stat3 activation and c-myc expression were effected by WP and AG compounds.
# [7] = tested on: c-myc; experiment: c-myc protein expression by immunoblot in MM cells; assay type: cell-based; set-up: key to C-Myc: (inhibition = ↓); (no effect) = —
# Procedure: as §3, with “control).” for “control). Both Stat3 activation and c-myc expression were effected by WP and AG compounds.”
# To determine the temporal effects and mechanism of action of AG490 and AG1801 action on c-myc expression in MM cells, MM-1 cells were incubated with 0, 25, or 50 μM of AG490 or AG1801 and harvested at 30, 60, or 120 min. Lysates were immunoblotted for c-myc or actin as a protein loading control. […] Semi-quantitative PCR was used to measure changes in c-myc mRNA extracted from cells treated for 30 min with AG1801 at 25 μM. GAPDH PCR was used as a control.
# These compounds were evaluated for their signal inhibitory and anti-proliferative/apoptotic properties on multiple myeloma, lymphoma and chronic myelogenous leukemia cell lines. WP1015, WP1034, AG1801, and AG490 were tested across a range of concentrations (6,12, and 25 μM) for their ability to inhibit c-myc expression using immunoblots.
# These immunoblots tested a range of concentrations (1.56-25 μM for WP compounds) and used β-actin as a control.
# [8] = tested on: Jak2/Stat3 signaling; conditions: literature; cited from earlier work
# [9] = tested on: MM colonies from bone marrow aspirates of MM patients; experiment: Primary MM colony formation in methyl-cellulose; assay type: cell-based, human; conditions: 25 μM, 7 to 10 days
# Procedure: To determine whether these compounds effect primary MM colony growth bone marrow aspirates from MM patients were partially-purified by magnetic bead separation and analyzed for immunoglobulin heavy-chain gene rearrangement by PCR. Cells were grown as colonies in methyl-cellulose in the presence or absence of AG compound as noted for 7 to 10 days. Control colonies were examined for Ig heavy chain gene rearrangement to confirm the clonal nature of the population.
smiles,measurement,setting,value
"N#C/C(=C\c1ccc(O)c(O)c1)C(=O)NCc1ccccc1 [AG 490, reference compound]",Growth and survival of U266 cells (in words),"[1]; MTT, FIG. 2C/3C",effective in reducing the growth and survival
same,IC50,"[1]; Homo sapiens, U-266, MTT assay",> 12.5 µM
same,Caspase activation (caspase 3 and caspase 8),[2],ineffective
same,PARP cleavage,[2],ineffective
same,IC50,"[3]; MTT assay, read-out: IC50 (μM) MM1",> 12.5 µM
same,Growth and survival of MM1 cells (in words),"[3]; MTT, FIG. 2A/3A",effective in reducing the growth and survival
same,Activity in animal studies,[4],limited activity
same,IC50,[5]; MTT assay,> 12.5 µM
same,Growth and survival of OCI cells (in words),"[5]; MTT, FIG. 2B/3B",effective in reducing the growth and survival
same,Suppression of IL-6 signaling (Stat3 activation),"[6]; MM-1 cells, 2 hr pretreatment, 12 and 25 μM, IL-6 10 min",inactive
same,P-Stat 3,"[6]; Stat3 inhibition, immunoblot",↓
same,P-Stat 3: concentration at which inhibition is seen,[6]; immunoblot,> 25 µM
same,Inhibition of c-myc protein expression,"[7]; 6, 12, 25 μM, AG490 up to 50 μM",little or no effect
same,"c-myc expression, temporal effects","[7]; MM-1 cells, 25 and 50 μM, 30, 60, 120 min",completely unable to affect c-myc expression
same,C-Myc,"[7]; c-myc downregulation, immunoblot",↓
same,Concentration needed to achieve inhibition of Jak2/Stat3 signaling and anti-tumor effects,[8],50 to 100 µM
same,Inhibition of MM colony formation,[9],less effective
